{"source": "patent US11130741B2", "about": "(Bioimics AB, priority 2016, dated 2021)", "key": {"[1]": {"test_system": "Staphylococcus aureus subsp. aureus (ATCC29213)", "assay": "MIC, broth microdilution (CLSI), Staphylococcus aureus subsp. aureus ATCC29213", "format": "cell-based", "details": "ATCC29213, Table 15, read-out: S. aureus (\"wound\") (MIC)"}, "[2]": {"test_system": "Escherichia coli (ATCC25922)", "assay": "MIC, broth microdilution (CLSI), Escherichia coli ATCC25922"}, "[3]": {"details": "ATCC25922, read-out: E. coli MIC, Table 15, NI = No inhibition"}}, "note": "Read-outs that look alike come from different tables or passages of the source."}
{"smiles": "Cl.Cl.Cl.NCCNCC(=O)CNc1cc(C(F)(F)F)cc2c1Nc1ccc(N3CCCC3)cc1S2", "note": "[compound 317, 1-((2-aminoethyl)amino)-3-((7-(pyrrolidin-1-yl)-3-(trifluoromethyl)-10H-phenothiazin-1-yl)amino) propan-2-one hydrochloride]", "values": [{"measurement": "MIC", "setting": "[1]", "result": 64, "unit": "mg/L"}, {"measurement": "MIC", "setting": "[2]; [3]", "result": 128, "unit": "mg/L"}]}
{"smiles": "Cl.NCCN1CCC(Nc2cc(C(F)(F)F)cc3c2Nc2ccc(N4CCCC(F)C4)cc2S3)CC1", "note": "(stereo not drawn) [compound 318, N-(1-(2-aminoethyl)piperidin-4-yl)-7-(3-fluoro-piperidin-1-yl)-3-(trifluoromethyl)-10H-phenothiazin-1-amine hydrochloride]", "values": [{"measurement": "MIC", "setting": "[1]", "result": 8, "unit": "mg/L"}, {"measurement": "MIC", "setting": "[2]; [3]", "result": 16, "unit": "mg/L"}]}
{"smiles": "Cl.FC(F)(F)c1cc(NC2CCN(CCN3CCNCC3)CC2)c2c(c1)Sc1cc(Br)ccc1N2", "note": "[compound 319, 7-bromo-N-(1-(2-(piperazin-1-yl)ethyl)piperidin-4-yl)-3-(trifluoromethyl)-10H-phenothiazin-1-amine hydrochloride]", "values": [{"measurement": "MIC", "setting": "[1]", "result": 8, "unit": "mg/L"}, {"measurement": "MIC", "setting": "[2]; [3]", "result": 8, "unit": "mg/L"}]}
{"smiles": "CC(C)C1CCCN(c2ccc3c(c2)Sc2cc(C(F)(F)F)cc(NC4CCN(CCN)CC4)c2N3)C1.Cl.Cl.Cl", "note": "(stereo not drawn) [compound 320, N-(1-(2-aminoethyl)piperidin-4-yl)-7-(3-isopropyl-piperidin-1-yl)-3-(trifluoromethyl)-10H-phenothiazin-1-amine hydrochloride]", "values": [{"measurement": "MIC", "setting": "[1]", "result": 4, "unit": "mg/L"}, {"measurement": "MIC", "setting": "[2]; [3]", "result": 32, "unit": "mg/L"}]}
{"smiles": "COC1CCN(c2ccc3c(c2)Sc2cc(C(F)(F)F)cc(NC4CCN(CCN)CC4)c2N3)C1.Cl.Cl", "note": "(stereo not drawn) [compound 321, N-(1-(2-aminoethyl)piperidin-4-yl)-7-(3-methoxy-pyrrolidin-1-yl)-3-(trifluoromethyl)-10H-phenothiazin-1-amine hydrochloride]", "values": [{"measurement": "MIC", "setting": "[1]", "result": 8, "unit": "mg/L"}, {"measurement": "MIC", "setting": "[2]; [3]", "result": 32, "unit": "mg/L"}]}
{"smiles": "Cl.Cl.NCCN1CCC(Nc2cc(C(F)(F)F)cc3c2Nc2ccc(N4CCC5(CCCC5)C4)cc2S3)CC1", "note": "[compound 322, N-(1-(2-aminoethyl)piperidin-4-yl)-7-(2-azaspiro [4.4]nonan-2-yl)-3-(trifluoromethyl)-10H-phenothiazin-1-amine hydrochloride]", "values": [{"measurement": "MIC", "setting": "[1]", "result": 1, "unit": "mg/L"}, {"measurement": "MIC", "setting": "[2]; [3]", "result": 4, "unit": "mg/L"}]}
{"smiles": "CN(C)CCNCC(=O)CNc1cc(C(F)(F)F)cc2c1Nc1ccc(N3CCCC3)cc1S2.Cl.Cl", "note": "[compound 323, 1-((2-(dimethyl-amino)ethyl)amino)-3-((7-(pyrrolidin-1-yl)-3-(trifluoromethyl)-10H-phenothiazin-1-yl)amino) propan-2-one hydrochloride]", "values": [{"measurement": "MIC", "setting": "[1]", "result": 128, "unit": "mg/L"}, {"measurement": "MIC", "setting": "[2]; ATCC25922, read-out: E. coli MIC", "result": "> 128", "unit": "mg/L"}]}
{"smiles": "Cl.NCCCNc1cc(C(F)(F)F)cc2c1Nc1ccc(N3CCCC3)cc1S2", "note": "[compound 324, N1-(7-(pyrrolidin-1-yl)-3-(trifluoromethyl)-10H-phenothiazin-1-yl)propane-1,3-diamine hydrochloride]", "values": [{"measurement": "MIC", "setting": "[1]", "result": 4, "unit": "mg/L"}, {"measurement": "MIC", "setting": "[2]; [3]", "result": 32, "unit": "mg/L"}]}
{"smiles": "COC1CCCN(c2ccc3c(c2)Sc2cc(C(F)(F)F)cc(NC4CCN(CCN)CC4)c2N3)C1.Cl", "note": "(stereo not drawn) [compound 326, N-(1-(2-aminoethyl)piperidin-4-yl)-7-(3-methoxy-piperidin-1-yl)-3-(trifluoromethyl)-10H-phenothiazin-1-amine hydrochloride]", "values": [{"measurement": "MIC", "setting": "[1]", "result": 8, "unit": "mg/L"}, {"measurement": "MIC", "setting": "[2]; [3]", "result": 16, "unit": "mg/L"}]}
{"smiles": "Cl.NCCN1CCC(Nc2cc(C(F)(F)F)cc3c2Nc2ccc(N4CC5CCC4C5)cc2S3)CC1", "note": "(stereo not drawn) [compound 327, N-(1-(2-aminoethyl)piperidin-4-yl)-7-(2-azabicyclo [2.2.1]heptan-2-yl)-3-(trifluoromethyl)-10H-phenothiazin-1-amine hydrochloride]", "values": [{"measurement": "MIC", "setting": "[1]", "result": 1, "unit": "mg/L"}, {"measurement": "MIC", "setting": "[2]; [3]", "result": 4, "unit": "mg/L"}]}
{"smiles": "CC(=O)Nc1cc(C(F)(F)F)cc2c1Nc1ccc(N3CCCC3)cc1S2.Cl", "note": "[compound 328, N-(7-(pyrrolidin-1-yl)-3-(trifluoromethyl)-10H-phenothiazin-1-yl)acetamide hydrochloride]", "values": [{"measurement": "MIC", "setting": "[1]", "result": 16, "unit": "mg/L"}, {"measurement": "MIC", "setting": "[2]; [3]", "result": "> 128", "unit": "mg/L"}]}
{"smiles": "Cc1cc(NC2CCN(CCN)CC2)c2c(c1)Sc1cc(Br)ccc1N2.Cl", "note": "[compound 329, N-(1-(2-aminoethyl)piperidin-4-yl)-7-bromo-3-methyl-10H-phenothiazin-1-amine hydrochloride]", "values": [{"measurement": "MIC", "setting": "[1]", "result": 16, "unit": "mg/L"}, {"measurement": "MIC", "setting": "[2]; [3]", "result": 64, "unit": "mg/L"}]}
